Series [1] deals with EA.hy926 cells. As to the kind of experiment: MTT cytotoxicity / growth inhibition assay, EA.hy926. The series is classed as cell-based, human. Here is the method: The endothelial cell line (EA.hy926) was kindly provided by Dr. C-J.S. Edgell—University of North Carolina, USA. Cells were cultured in 4.5 g/L D-Glucose DMEM/F12 medium, supplemented with 10% fetal bovine serum (FBS, Cytogen GmBH, Greven, Germany) and 100 U/mL penicillin and streptomycin (Lonza BioWhitaker, Verviers, Belgium). The other cell lines used are described in Table S3.1. Cell cultures were maintained in an incubator at 37 °C with 95% humidity and 5% CO2 and were routinely found free of mycoplasma.
All tested compounds were dissolved in DMSO at 25 mM initial concentration and diluted with medium to obtain the working concentrations (0.01 nM–250 µM). Serial drug dilutions were prepared in medium immediately before each experiment. The DMSO working concentration in the medium was […]. For the MTT assay, cells were seeded into 96-well microtitre plates at a density of 1 × 10^4 in 100 µL complete medium per well. They were further incubated for 24 h, followed by treatment with CA-4 analogs up to 72 h. Cell viability was determined using the MTT assay. Ten µL of MTT solution (5 mg/mL) was added to each well and further incubated for 3 h at 37 °C. To dissolve the formazan product, 100 µL/well of 99.5% isopropanol was added. Cell viability was determined by measuring absorbance at 550/630 nm using a DTX880 plate reader (Beckman Coulter, USA). Results, expressed as concentrations that inhibit 20% (IC20), 50% (IC50), and 80% (IC80) of cell growth, were calculated using GraphPad Prism 8.0.1.

The test system of a further series is α,β-tubulin. Description: In vitro quantification of polymeric vs. soluble tubulin fractions in EA.hy926 cells. The class given is cell-based, human. To be noted: EA.hy926, 1 µM, 6 h; DMSO control 2.33 ± 0.14. Here is the method: To assess the early effects on the microtubule cytoskeleton in vitro, EA.hy926 cells were cultured for 24 h in 6-cm dishes (3 × 10^5 cells). They were exposed to […] (control), 1 μM CA-4, paclitaxel, or increasing concentrations of 26Z (50, 100, 250, 2500, 10,000 nM) for 6 h. Cells were washed with PBS and lysed directly in the dishes with hypotonic lysis buffer (20 mM Tris-HCl, 1 mM MgCl2, 2 mM EGTA, 0.5% Triton X-100, glycerol 10%, pH 6.8), supplemented with protease inhibitors (2 μg/mL leupeptin, 2 μg/mL pepstatin, 0.4 mM Na vanadate, 0.5 mM PMSF, 1 mM DTT), for 3 min at 30 °C. The soluble fraction was immediately collected, mixed with 5× sample buffer, and boiled at 95 °C for 5 min. The polymerized fraction was collected directly from the culture dish following 10 min of incubation at room temperature with 1× sample buffer.
For the concentration-dependent assay, the cells were harvested by scraping and centrifuged at 1000 g for 5 min, and then lysed with the hypotonic cell lysis buffer for 10 min at room temperature. Tubulin fractions were obtained by centrifugation at 12,000 × g for 10 min.
Equal volumes of the samples were subjected to 10% SDS-PAGE followed by western blotting. Detection of β-tubulin content was accomplished with an anti-β-tubulin mouse monoclonal antibody (sc-101527, Santa Cruz Biotechnology).

Series [2] deals with rhodamine-labeled α,β-tubulin. Description: Ex vivo rhodamine-tubulin polymerization (fluorescence microscopy). To be noted: 20 μM, 37 °C, 45 min.
Procedure: TAMRA-Tubulin (TL590M, Cytoskeleton) diluted in GTB buffer (PEM, 10% glycerol, 1 mM GTP) was mixed with unlabeled α,β-tubulin (T240, Cytoskeleton) at a ratio of 1:3 (v/v) to a concentration of 4.0 mg/mL. […] Samples were then centrifuged for 20 min at 30,000× g. The pellets were diluted in 6 µL PEM buffer, containing 1 mM GTP and 0.5% glutaraldehyde, mixed with anti-fade mounting media (P36934, Invitrogen, Eugene, USA), and examined under a confocal LSM 980 Airyscan microscope (Carl Zeiss AG, Oberkochen, Germany).
For series [3], the system named is EA.hy926 cells. Description: Clonogenic survival assay. The class given is cell-based, human. The following applies: 72 h treatment + 6 days recovery; for decrease in colony number: EA.hy926, 250 nM; for reduction in colony formation: EA.hy926, 2.5, 10 and 25 µM. Here is the method:
EA.hy926 cells were seeded at 300 cells/well on a 6-well plate and incubated for 24 h. The cells were treated with different concentrations of test compounds for 72 h. After six additional days of growth in a fresh medium to form visible colonies, cells were washed with phosphate-buffered saline (PBS, pH 7.4) and stained with crystal violet (0.5%, w/v) in 6% glutaraldehyde. After 30 min of incubation, the plates were washed with tap water, dried, photographed, and analyzed using ImageJ [79]. Raw data were normalized to the corresponding DMSO control for each independent experiment. After normalization, statistically significant differences for colony-forming efficiency (CFE) values versus […] were calculated.

Series [4] concerns EA.hy926 cells. Description: In vitro cell migration (wound-healing) assay. The class given is cell-based, human. To be noted: EA.hy926, 50 nM, 24 h. Here is the method: A total of 3 × 10^5 EA.hy926 cells were seeded in a 12-well plate and grown close to the confluence. The cell monolayer was gently scraped with a P200 pipette tip, creating a wound area around 1-mm wide. Cells were washed twice with fresh medium and treated with test compounds diluted in growth media to the corresponding sub-toxic concentrations. Images were acquired at 0 and 24 h following treatment. After incubation for 24 h, the scratch wound width was measured and recorded, and then compared with the initial scratch wound width at 0 h. Using the ImageJ image processing program (ImageJ150-WIN-Java8), the size of the denuded area in pixels was determined at each time point from the digital images.

The test system of series [5] is EA.hy926 cells. As to the kind of experiment: Matrigel tube disruption assay. The class given is cell-based, human. The following applies: EA.hy926 on Matrigel, IC50 concentration, 24 h of treatment, compared with time 0. Here is the method:
The tube formation assay was performed in 96-well plates coated with 40 µL BD Matrigel™ (basement membrane matrix), following the manufacturer’s instruction (BD Biosciences). A total of 2 × 10^4 EA.hy926 cells was re-suspended in growth medium and added to each well in a final volume of 100 µL. Tube formation was visualized directly using a light microscope. Images were captured using a phase-contrast microscope and quantitation was performed using the WimTube application of the Wimasis online image analysis platform (https://www.wimasis.com/en/products/13/WimTube; accessed on 1 June 2021).

Where [6] appears, read: Homo sapiens, EA.hy 926, 72 h of treatment.

Structures are written as SMILES.

The values that follow come from article PMC8703450, “New Heterocyclic Combretastatin A-4 Analogs: Synthesis and Biological Activity of Styryl-2(3H)-benzothiazolones” (Pharmaceuticals, 2021).

What is called IC50 is the midpoint of a concentration-inhibition curve. Read a high IC50 as a need for much substance. As usually defined, the melting point is the temperature, or range, at which the solid turns liquid.

With `COc1cc(/C=C\c2cccc3sc(=O)n(C)c23)cc(OC)c1` [Compound 17Z, (Z)-4-(3,5-Dimethoxystyryl)-3-methyl-2(3H)-benzothiazolone], the midpoint of inhibition in the series on EA.hy926 cells [1] (setting [6]), the IC50, lay at 19.5 ± 2.71 µM.

As for `COc1ccc(/C=C\c2cccc3sc(=O)n(C)c23)cc1OC` [Compound 16Z, (Z)-4-(3,4-Dimethoxystyryl)-3-methyl-2(3H)-benzothiazolone], inhibition in the series with EA.hy926 cells [1] (setting [6]) was half-maximal at 25.8 ± 3.11 µM (IC50).

For the compound `COc1ccc(/C=C\c2ccc3sc(=O)n(C)c3c2)cc1` [Compound 19Z, (Z)-5-(4-Methoxystyryl)-3-methyl-2(3H)-benzothiazolone], half-maximal inhibition with EA.hy926 cells [1] (setting [6]) (IC50) was put at 12 ± 2.49 µM.

`COc1ccc(/C=C\c2ccc3c(c2)sc(=O)n3C)cc1` [Compound 23Z, (Z)-6-(4-Methoxystyryl)-3-methyl-2(3H)-benzothiazolone] showed an IC50 in the series on EA.hy926 cells [1] (setting [6]) of 19.8 ± 3.45 µM.

Take `COc1cc(/C=C\c2cccc3sc(=O)n(C)c23)cc(OC)c1OC` [Compound 18Z, (Z)-3-Methyl-4-(3,4,5-trimethoxystyryl)-2(3H)-benzothiazolone]: the IC50 in the series on EA.hy926 cells [1] (setting [6]) turned out to be 15.6 ± 1.16 µM.

Turning to `CC(=O)O[C@H]1C(=O)[C@@]2(C)[C@H]([C@H](OC(=O)c3ccccc3)[C@]3(O)C[C@H](OC(=O)[C@H](O)[C@@H](NC(=O)c4ccccc4)c4ccccc4)C(C)=C1C3(C)C)[C@]1(OC(C)=O)CO[C@@H]1C[C@@H]2O` [paclitaxel, reference compound], the “soluble vs. polymerized tubulin ratio” value in the series with α,β-tubulin was determined as 0.51 ± 0.19. Moreover, in series [2], the “fluorescent microtubule fiber formation” value was “promoted the formation of microtubule fibers”.

In the series on EA.hy926 cells [1] (setting [6]), `COc1ccc(/C=C\c2ccc3sc(=O)n(C)c3c2)cc1OC` [Compound 20Z, (Z)-5-(3,4-Dimethoxystyryl)-3-methyl-2(3H)-benzothiazolone] returned an IC50 of 14.6 ± 1.75 µM.

In the series with EA.hy926 cells [1] (setting [6]), `COc1cc(/C=C\c2ccc3sc(=O)n(C)c3c2)cc(OC)c1OC` [Compound 22Z, (Z)-3-Methyl-5-(3,4,5-trimethoxystyryl)-2(3H)-benzothiazolone] came in with an IC50 of 9.43 ± 0.92 µM.

In turn, `COc1cc(/C=C\c2ccc3c(c2)sc(=O)n3C)cc(OC)c1` [Compound 25Z, (Z)-6-(3,5-Dimethoxystyryl)-3-methyl-2(3H)-benzothiazolone] showed an IC50 with EA.hy926 cells [1] (setting [6]) of 1.88 ± 0.18 µM. Further, in the series on EA.hy926 cells [3], the “decrease in colony number” value is 55% and the “reduction in colony formation” value is on record as “about 100%”. Further, the “remaining mean wound opened area” value in the series with EA.hy926 cells [4] worked out at 22.4%.

For `COc1cc(/C=C\c2ccc3sc(=O)n(C)c3c2)cc(OC)c1` [Compound 21Z, (Z)-5-(3,5-Dimethoxystyryl)-3-methyl-2(3H)-benzothiazolone], the IC50 in the series with EA.hy926 cells [1] (setting [6]) was 10.8 ± 0.62 µM.

`COc1cc(/C=C\c2cccc3c2sc(=O)n3C)cc(OC)c1OC` [Compound 27Z, (E/Z)-3-Methyl-7-(3,4,5-Trimethoxystyryl)-2(3H)-Benzothiazolone] registered a melting point of 155 to 156 °C. This compound also displayed an IC50 with EA.hy926 cells [1] (setting [6]) of 0.3 ± 0.05 µM. In the series with EA.hy926 cells [3], the “decrease in colony number” value came out at 75% and the “reduction in colony formation” value is given as “about 100%”. Also, in the series with EA.hy926 cells [4], the “remaining mean wound opened area” value is given as 3%. Also, the “reduction in cumulative tube length” value in the series on EA.hy926 cells [5] is recorded as ~ 70%. The “soluble vs. polymerized tubulin ratio” value with α,β-tubulin turned out to be 1.82 ± 0.36.

In the case of `COc1ccc(/C=C\c2cccc3sc(=O)n(C)c23)cc1` [Compound 15Z, (E/Z)-4-(4-Methoxystyryl)-3-Methyl-2(3H)-Benzothiazolone], the IC50 with EA.hy926 cells [1] (72 h of treatment) is 22 ± 4.57 µM.

`COc1cc(/C=C/c2ccc3c(c2)sc(=O)n3C)cc(OC)c1OC` [Compound 26E, (E/Z)-3-Methyl-6-(3,4,5-Trimethoxystyryl)-2(3H)-Benzothiazolone] displayed an IC50 in the series with EA.hy926 cells [1] (72 h of treatment) of 38.2 ± 5.35 µM.

Take `COc1ccc(/C=C\c2ccc3c(c2)sc(=O)n3C)cc1OC` [Compound 24Z, (Z)-6-(3,4-Dimethoxystyryl)-3-methyl-2(3H)-benzothiazolone]: in the series with EA.hy926 cells [1] (setting [6]), the IC50 is 9.28 ± 1.13 µM.
